The source of these data is US10202351B2, “Pyrazolyl derivatives as pest control agents” (BAYER ANIMAL HEALTH GMBH, priority 2015, dated 2019).

For one data set, the system named is Boophilus microplus. As to the kind of experiment: Boophilus microplus injection test. Type of data set: in vivo. The note with it: after 7 days, laying of fertile eggs. On the procedure: Solvent: dimethyl sulfoxide […] The animals are transferred into dishes and kept in a climate-controlled room. Efficacy is assessed after 7 days by laying of fertile eggs. Eggs which are not visibly fertile are stored in a climate-controlled cabinet until the larvae hatch after about 42 days.

The subject of another data set is Lucilia cuprina. Kind of data set: Lucilia cuprina test. Type of data set: in vivo. Particulars: L1 larvae, kill after 2 days. As for the experimental part:
(§1) Solvent: dimethyl sulfoxide
(§2) To produce a suitable preparation of active compound, 10 mg of active compound are mixed with 0.5 ml of dimethyl sulfoxide, and the concentrate is diluted with water to the desired concentration.
About 20 L1 larvae of the Australian sheep blowfly (Lucilia cuprina) are transferred into a test vessel containing minced horsemeat and the active compound formulation of the desired concentration.
After 2 days, the kill in % is determined. 100% means that all the larvae have been killed; 0% means that no larvae have been killed.

The test system of the next data set is Spodoptera frugiperda. Kind of data set: Spodoptera frugiperda spray test. The note with it: application rate 100 g/ha, caterpillars on maize leaf discs, after 7 days. Type of data set: in vivo. On the procedure:
Solvent: 78.0 parts by weight of acetone • • 1.5 parts by weight of dimethylformamide Emulsifier: alkylaryl polyglycol ether […] To produce further test concentrations, the formulation is diluted with emulsifier-containing water. Leaf discs of maize (Zea mays) are sprayed with an active compound formulation of the desired concentration and, after drying, populated with caterpillars of the armyworm (Spodoptera frugiperda).

Data set [1] has as its system Ctenocephalides felis. As to the kind of experiment: Ctenocephalides felis in vitro contact test with adult cat fleas. Type of data set: in vivo. Particulars: application rate 5 μg/cm^2 (500 g/ha), after 48 h, dead or moribund fleas. As for the experimental part: After the solvent has evaporated off, the tubes are populated with 5-10 adult cat fleas (Ctenocephalides felis), sealed with a perforated plastic lid and incubated in a horizontal position at room temperature and ambient humidity. After 48 h, efficacy is determined. To this end, the tubes are stood upright and the fleas are knocked to the base of the tube. Fleas which remain motionless at the base or move in an uncoordinated manner are considered to be dead or moribund.

In the next data set the test system is Phaedon cochleariae. As to the kind of experiment: Phaedon cochleariae spray test. Particulars: application rate 100 g/ha, larvae on Chinese cabbage leaf discs, after 7 days. It is filed as in vivo. On the procedure:
Solvent: 78.0 parts by weight of acetone • • 1.5 parts by weight of dimethylformamide Emulsifier: alkylaryl polyglycol ether […] To produce further test concentrations, the formulation is diluted with emulsifier-containing water. Discs of Chinese cabbage leaves (Brassica pekinensis) are sprayed with an active ingredient formulation of the desired concentration and, after drying, populated with larvae of the mustard beetle (Phaedon cochleariae).

The next data set has as its system Musca domestica. Kind of data set: Musca domestica test. Type of data set: in vivo. The note with it: adult houseflies, kill after 2 days. On the procedure:
as §1, §2
Vessels containing a sponge treated with sugar solution and the active ingredient formulation of the desired concentration are populated with 10 adult houseflies (Musca domestica)).
After 2 days, the kill in % is determined. 100% means that all of the flies have been killed; 0% means that none of the flies have been killed.

Data set [2] relates to Ctenocephalides felis. Kind of data set: Ctenocephalides felis oral test. Particulars: kill after 2 days. It is filed as in vivo. From the text:
Solvent: dimethyl sulfoxide […] Dilution with citrated cattle blood gives the desired concentration. About 20 unfed adult cat fleas (Ctenocephalides felis) are placed into a chamber which is closed at the top and bottom with gauze. A metal cylinder whose bottom end is closed with parafilm is placed onto the chamber. The cylinder contains the blood/active ingredient formulation, which can be imbibed by the fleas through the parafilm membrane.

The test system of a further data set is Tetranychus urticae. Kind of data set: Tetranychus urticae spray test, OP-resistant. Type of data set: in vivo. The note with it: application rate 100 g/ha, all stages on bean leaf discs, after 6 days. As for the experimental part: Solvent: 78.0 parts by weight of acetone • • 1.5 parts by weight of dimethylformamide Emulsifier: alkylaryl polyglycol ether […] To produce further test concentrations, the formulation is diluted with emulsifier-containing water. Discs of bean leaves (Phaseolus vulgaris) infested with all stages of the greenhouse red spider mite (Tetranychus urticae) are sprayed with an active ingredient formulation of the desired concentration.

The nature of data set [3]: logP determination by HPLC on reversed-phase column (EEC Directive 79/831 Annex V.A8). Type of data set: physicochemical. The note with it: Table 1; HPLC C18, acetonitrile/water with formic acid.
Another data set deals with Rhipicephalus sanguineus. Kind of data set: Rhipicephalus sanguineus in vitro contact test with adult brown dog ticks. Type of data set: in vivo. The note with it: after 48 h, dead or moribund ticks. On the procedure: After the solvent has evaporated off, the tubes are populated with 5-10 adult dog ticks (Rhipicephalus sanguineus), sealed with a perforated plastic lid and incubated in a horizontal position in the dark at room temperature and ambient humidity. After 48 h, efficacy is determined. To this end, the ticks are knocked to the base of the tube and incubated on a hotplate at 45-50° C. for not more than 5 min. Ticks which remain motionless on the base or move in such an uncoordinated manner that they are unable to deliberately avoid the heat by climbing upwards are considered to be dead or moribund.

Setting [4] is: application rate 100 ppm in citrated cattle blood.
[5] abbreviates: application rate 1 μg/cm^2 (100 g/ha).
Setting [6] is: application rate 5 μg/cm^2 (500 g/ha).

SMILES strings stand for the structures.

As to `Cc1cc(C(F)(C(F)(F)F)C(F)(F)F)cc(C(F)(F)F)c1-n1cc(-c2ccc(F)c(NC(=O)c3ccncc3)c2F)cn1` [Example 25], the efficacy in the data set with Boophilus microplus (application rate 20 μg/animal), with Lucilia cuprina (application rate 100 ppm), in the data set on Spodoptera frugiperda, with Ctenocephalides felis [1], in the data set with Phaedon cochleariae and with Musca domestica (application rate 100 ppm) was 100% throughout. For the same molecule, the efficacy with Ctenocephalides felis [2] (setting [4]) and with Tetranychus urticae was 100% in each case.
For `Cc1cc(C(F)(C(F)(F)F)C(F)(F)F)cc(C(F)(F)F)c1-n1cc(-c2ccc(F)c(NC(=O)c3ccnc(F)c3)c2)cn1` [Example 51], the efficacy in the data set on Boophilus microplus (application rate 20 μg/animal), in the data set on Lucilia cuprina (application rate 100 ppm), with Spodoptera frugiperda, in the data set with Ctenocephalides felis [1], in the data set with Phaedon cochleariae and in the data set on Musca domestica (application rate 100 ppm) was 100% in each case. In addition, the results for the efficacy in the data set on Ctenocephalides felis [2] (setting [4]) and in the data set on Tetranychus urticae were 100% and 90%, respectively.
In the case of `Cc1ncc(-c2cnn(-c3c(Cl)cc(C(F)(C(F)(F)F)C(F)(F)F)cc3Cl)c2)cc1NC(=O)c1ccc(F)cc1` [Example 17], the efficacy with Boophilus microplus (application rate 4 μg/animal), in the data set on Lucilia cuprina (application rate 20 ppm), in the data set on Spodoptera frugiperda, with Ctenocephalides felis [1], with Phaedon cochleariae and in the data set on Musca domestica (application rate 20 ppm) was 100% each time. The efficacy with Ctenocephalides felis [2] (application rate 20 ppm in citrated cattle blood) and in the data set on Tetranychus urticae was 100% each time.
As to `O=C(Nc1cc(-c2cnn(-c3c(Cl)cc(C(F)(C(F)(F)F)C(F)(F)F)cc3Cl)c2)cnc1F)c1ccncc1` [Example 19], the efficacy with Boophilus microplus (application rate 20 μg/animal), with Lucilia cuprina (application rate 100 ppm), in the data set on Spodoptera frugiperda, with Ctenocephalides felis [1], with Phaedon cochleariae and with Musca domestica (application rate 100 ppm) was 100% each time. The efficacy in the data set on Ctenocephalides felis [2] (setting [4]) and in the data set on Tetranychus urticae was 100% each time.
For `Cc1cc(C(F)(C(F)(F)F)C(F)(F)F)cc(C(F)(F)F)c1-n1cc(-c2cccc(NC(=O)c3ccncc3)c2F)cn1` [Example 68], the efficacy in the data set on Boophilus microplus (application rate 20 μg/animal), in the data set with Lucilia cuprina (application rate 100 ppm), with Spodoptera frugiperda, in the data set on Ctenocephalides felis [1], in the data set with Phaedon cochleariae and in the data set with Musca domestica (application rate 100 ppm) was 100% in each case. Besides, the efficacy in the data set on Ctenocephalides felis [2] (setting [4]) and in the data set with Tetranychus urticae was 100% throughout.
`Cc1cc(C(F)(C(F)(F)F)C(F)(F)F)cc(C)c1-n1cc(-c2ccc(F)c(NC(=O)c3cncnc3)c2)cn1` [Example 15]: the efficacy in the data set on Boophilus microplus (application rate 20 μg/animal), in the data set with Lucilia cuprina (application rate 100 ppm), in the data set with Spodoptera frugiperda, in the data set with Ctenocephalides felis [1], with Phaedon cochleariae and in the data set on Musca domestica (application rate 100 ppm) was 100% in each case. Besides, the efficacy with Ctenocephalides felis [2] (setting [4]) came to 100%. Moreover, the lgP entry in data set [3] is “lgP 3.95”.
With `Cc1cc(C(F)(C(F)(F)F)C(F)(F)F)cc(C(F)(F)F)c1-n1cc(-c2cccc(NC(=O)c3cocn3)c2F)cn1` [Example 77], the efficacy in the data set on Rhipicephalus sanguineus (setting [5]), in the data set with Boophilus microplus (application rate 20 μg/animal), in the data set with Lucilia cuprina (application rate 100 ppm), in the data set with Spodoptera frugiperda, in the data set on Phaedon cochleariae and in the data set on Musca domestica (application rate 100 ppm) was 100% each time. The efficacy with Ctenocephalides felis [2] (setting [4]) was found to be 100%.
`Cc1cc(C(F)(C(F)(F)F)C(F)(F)F)cc(C(F)(F)F)c1-n1cc(-c2ccc(F)c(NC(=O)C3(C)CC3)c2)cn1` [Example 30]: the efficacy in the data set on Boophilus microplus (application rate 20 μg/animal), with Lucilia cuprina (application rate 100 ppm), in the data set on Spodoptera frugiperda, in the data set with Ctenocephalides felis [1], with Phaedon cochleariae and in the data set on Musca domestica (application rate 100 ppm) was 100% each time. The molecule also displayed an efficacy in the data set with Ctenocephalides felis [2] (setting [4]) of 100%.
Take `Cc1cc(C(F)(C(F)(F)F)C(F)(F)F)cc(C(F)(F)F)c1-n1cc(-c2ccc(F)c(NC(=O)c3ccc(C#N)nc3)c2)cn1` [Example 46]: the efficacy in the data set with Boophilus microplus (application rate 20 μg/animal), with Lucilia cuprina (application rate 100 ppm), in the data set with Spodoptera frugiperda, in the data set with Ctenocephalides felis [1], in the data set with Phaedon cochleariae and with Musca domestica (application rate 100 ppm) was 100% throughout. For the same molecule, the efficacy in the data set on Ctenocephalides felis [2] (setting [4]) amounted to 100%.
On to `COc1cc(C(=O)Nc2cc(-c3cnn(-c4c(C)cc(C(F)(C(F)(F)F)C(F)(F)F)cc4C(F)(F)F)c3)cnc2Cl)ccc1F` [Example 24], for which the efficacy with Rhipicephalus sanguineus (setting [6]), with Boophilus microplus (application rate 20 μg/animal), in the data set on Lucilia cuprina (application rate 100 ppm), in the data set on Spodoptera frugiperda, with Phaedon cochleariae and in the data set on Musca domestica (application rate 100 ppm) was 100% each time. Also, the efficacy with Ctenocephalides felis [2] (setting [4]) and in the data set on Tetranychus urticae was 100% throughout.
On to `Cc1cc(C(F)(C(F)(F)F)C(F)(F)F)cc(C(F)(F)F)c1-n1cc(-c2ccc(F)c(NC(=O)c3ccc(F)cc3)c2F)cn1` [Example 23], for which the efficacy with Rhipicephalus sanguineus (setting [5]) turned out to be 100%; with Boophilus microplus (application rate 20 μg/animal) it was 100%; in the data set with Lucilia cuprina (application rate 100 ppm), 100%; in the data set with Spodoptera frugiperda, 100%; in the data set with Phaedon cochleariae it was 100%; in the data set with Musca domestica (application rate 100 ppm) it was 80%. For the same molecule, the efficacy in the data set on Ctenocephalides felis [2] (setting [4]) amounted to 100%.
Regarding `Cc1cc(C(F)(C(F)(F)F)C(F)(F)F)cc(C)c1-n1cc(-c2ccc(N(C)C)c(NC(=O)c3ccncc3)c2)cn1` [Example 20], the efficacy in the data set on Boophilus microplus (application rate 20 μg/animal) was 100%; in the data set on Spodoptera frugiperda it was 100%; in the data set on Ctenocephalides felis [1], 100%; in the data set on Phaedon cochleariae, 100%; with Musca domestica (application rate 100 ppm) it was 90%; with Ctenocephalides felis [2] (setting [4]), 100%. The molecule also registered an efficacy in the data set with Tetranychus urticae of 100%.
`Cc1cc(C(F)(C(F)(F)F)C(F)(F)F)cc(C(F)(F)F)c1-n1cc(-c2ccc(F)c(NC(=O)C3CSC3)c2)cn1` [Example 66]: the efficacy in the data set with Rhipicephalus sanguineus (setting [6]), with Boophilus microplus (application rate 20 μg/animal), in the data set on Lucilia cuprina (application rate 100 ppm), with Spodoptera frugiperda, in the data set on Phaedon cochleariae and in the data set on Musca domestica (application rate 100 ppm) was 100% in each case. Moreover, the efficacy in the data set on Ctenocephalides felis [2] (setting [4]) and in the data set on Tetranychus urticae was 100% throughout.
As for `Cc1cc(C(F)(C(F)(F)F)C(F)(F)F)cc(C(F)(F)F)c1-n1cc(-c2cc(NC(=O)c3cocn3)ccc2F)cn1` [Example 2-12], the efficacy in the data set on Rhipicephalus sanguineus (setting [5]) is recorded as 100%; with Boophilus microplus (application rate 20 μg/animal), 100%; in the data set on Lucilia cuprina (application rate 100 ppm) it was 90%; in the data set with Spodoptera frugiperda, 100%; with Phaedon cochleariae, 100%; in the data set with Ctenocephalides felis [2] (setting [4]), 95%.
As for `Cc1cnccc1C(=O)Nc1cc(-c2cnn(-c3c(C)cc(C(F)(C(F)(F)F)C(F)(F)F)cc3C(F)(F)F)c2)ccc1F` [Example 54], the efficacy with Boophilus microplus (application rate 20 μg/animal), in the data set with Lucilia cuprina (application rate 100 ppm), with Spodoptera frugiperda, with Ctenocephalides felis [1], with Phaedon cochleariae and with Musca domestica (application rate 100 ppm) was 100% throughout. Further, the efficacy with Ctenocephalides felis [2] (setting [4]) and in the data set on Tetranychus urticae was 100% throughout.
